Key:
U251 = assay: NCI-60 SRB screen, CNS cancer; format: cell-based, human; conditions: U251, 48 h; for GI50: Homo sapiens, U-251, five dose 0.01–100 µM, read-out: GI50
IGROV1 = assay: NCI-60 SRB screen, ovarian cancer; format: cell-based, human; conditions: IGROV1, 48 h; for GI50: Homo sapiens, IGROV-1, five dose 0.01–100 µM, read-out: GI50
SR = assay: NCI-60 SRB screen, leukemia; format: cell-based, human; conditions: 48 h; for GI50: Homo sapiens, five dose 0.01–100 µM, read-out: GI50
SF539 = assay: NCI-60 SRB screen, CNS cancer; format: cell-based, human; conditions: SF-539, 48 h; for GI50: Homo sapiens, SF539, five dose 0.01–100 µM, read-out: GI50
LOX IMVI = assay: NCI-60 SRB screen, melanoma; format: cell-based, human; conditions: 48 h; for GI50: Homo sapiens, five dose 0.01–100 µM, read-out: GI50
SN12C = assay: NCI-60 SRB screen, renal cancer; format: cell-based, human; conditions: 48 h; for GI50: Homo sapiens, five dose 0.01–100 µM, read-out: GI50
SK-OV-3 = assay: NCI-60 SRB screen, ovarian cancer; format: cell-based, human; conditions: SK-OV-3, 48 h; for GI50: Homo sapiens, five dose 0.01–100 µM, read-out: GI50
SK-MEL-28 = assay: NCI-60 SRB screen, melanoma; format: cell-based, human; conditions: SK-MEL-28, 48 h; for GI50: Homo sapiens, five dose 0.01–100 µM, read-out: GI50
A549/ATCC = assay: NCI-60 SRB screen, non-small cell lung cancer; format: cell-based, human; conditions: 48 h; for GI50: Homo sapiens, A549/ATCC, five dose 0.01–100 µM, read-out: GI50
COLO 205 = assay: NCI-60 SRB screen, colon cancer; format: cell-based, human; conditions: COLO 205, 48 h; for GI50: Homo sapiens, five dose 0.01–100 µM, read-out: GI50
KM12 = assay: NCI-60 SRB screen, colon cancer; format: cell-based, human; conditions: KM12, 48 h; for GI50: Homo sapiens, five dose 0.01–100 µM, read-out: GI50
MDA-MB-231/ATCC = assay: NCI-60 SRB screen, breast cancer; format: cell-based, human; conditions: 48 h; for GI50: five dose 0.01–100 µM, read-out: GI50
BT-549 = assay: NCI-60 SRB screen, breast cancer; format: cell-based, human; conditions: BT-549, 48 h; for GI50: Homo sapiens, five dose 0.01–100 µM, read-out: GI50
OVCAR-8 = assay: NCI-60 SRB screen, ovarian cancer; format: cell-based, human; conditions: OVCAR-8, 48 h; for GI50: Homo sapiens, five dose 0.01–100 µM, read-out: GI50
CCRF-CEM = assay: NCI-60 SRB screen, leukemia; format: cell-based; conditions: Homo sapiens, five dose 0.01–100 µM, 48 h, read-out: GI50
NCI-H226 = assay: NCI-60 SRB screen, non-small cell lung cancer; format: cell-based; conditions: Homo sapiens; NCI-H226; five dose 0.01–100 µM, 48 h; read-out: GI50
HCT-2998 = assay: NCI-60 SRB screen, colon cancer; format: cell-based, human; conditions: 48 h; for GI50: Homo sapiens, HCT-2998, five dose 0.01–100 µM, read-out: GI50
[1] = test system: purified bovine brain tubulin; assay: Tubulin polymerization assay (light scattering, BK006 kit); format: biochemical; conditions: compound at 10 μM; relative to vehicle
How it was run: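 Compounds tested at 10 µM against vehicle (1% DMSO or EtOH) with bovine brain tubulin, 3 mg/mL, in pH 6.9 PIPES buffer containing 1 mM GTP and 10% glycerol, 37 °C. Light scattering at 340 nm tracked microtubule formation; average of two independent runs reported.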

CAKI-1 = assay: NCI-60 SRB screen, renal cancer; format: cell-based, human; conditions: CAKI-1, 48 h; for GI50: Homo sapiens, five dose 0.01–100 µM, read-out: GI50
RXF 393 = assay: NCI-60 SRB screen, renal cancer; format: cell-based, human; conditions: RXF 393, 48 h; for GI50: Homo sapiens, five dose 0.01–100 µM, read-out: GI50
HOP-92 = assay: NCI-60 SRB screen, non-small cell lung cancer; format: cell-based, human; conditions: HOP-92, 48 h; for GI50: Homo sapiens, five dose 0.01–100 µM, read-out: GI50
SW-620 = assay: NCI-60 SRB screen, colon cancer; format: cell-based, human; conditions: SW-620, 48 h; for GI50: Homo sapiens, five dose 0.01–100 µM, read-out: GI50
HL-60(TB) = assay: NCI-60 SRB screen, leukemia; format: cell-based, human; conditions: for GI50: Homo sapiens
786-0 = assay: NCI-60 SRB screen, renal cancer; format: cell-based, human; conditions: 786-0, 48 h; for GI50: Homo sapiens, five dose 0.01–100 µM, read-out: GI50
MDA-MB-435 = assay: NCI-60 SRB screen, melanoma; format: cell-based, human; conditions: MDA-MB-435, 48 h; for GI50: Homo sapiens, five dose 0.01–100 µM, read-out: GI50
RPMI-8226 = assay: NCI-60 SRB screen, leukemia; format: cell-based, human; conditions: RPMI-8226, 48 h; for GI50: Homo sapiens, five dose 0.01–100 µM, read-out: GI50
HT29 = assay: NCI-60 SRB screen, colon cancer; format: cell-based, human; conditions: for GI50: five dose 0.01–100 µM, read-out: GI50
ACHN = assay: NCI-60 SRB screen, renal cancer; format: cell-based, human; conditions: 48 h; for GI50: Homo sapiens, five dose 0.01–100 µM, read-out: GI50
[2] = HL-60(TB), five dose 0.01–100 µM, 48 h
[3] = Homo sapiens, HT-29, HT29, 48 h

C=C(C)C1C(=O)N(c2cc(OC)c(OC)c(OC)c2)C1c1ccc(OC)c(N)c1 (stereo not drawn) [9s, 4-(3-Amino-4-methoxyphenyl)-1-(3,4,5-trimethoxyphenyl)-3-(prop-1-en-2-yl)azetidin-2-one]
GI50 (U251): 37.5 nM | GI50 (IGROV1): 35.7 nM | GI50 (SR): 30.4 nM | GI50 (SF539): 40.2 nM | GI50 (LOX IMVI): 32.5 nM | GI50 (SN12C): 62.9 nM | GI50 (SK-OV-3): 31.7 nM | GI50 (SK-MEL-28): > 100 µM | GI50 (A549/ATCC): 41.5 nM | GI50 (COLO 205): 19.7 nM | GI50 (KM12): 23.1 nM | GI50 (MDA-MB-231/ATCC; Homo sapiens, MDA-MB-231/ATCC): 31.5 nM | GI50 (BT-549): 37.8 nM | GI50 (OVCAR-8): 30.8 nM | GI50 (CCRF-CEM): 37.7 nM | GI50 (NCI-H226): 43.5 nM | GI50 (HCT-2998): 29.1 nM | Fold Reduction in Vmax [1]: 2.66 | GI50 (CAKI-1): 49.1 nM | GI50 (RXF 393): 39.6 nM | GI50 (HOP-92): 43.7 nM | GI50 (SW-620): 39.4 nM | GI50 (HL-60(TB); [2]): 28.3 nM | GI50 (HL-60(TB); HL-60, NCI screen): < 34 nM | GI50 (786-0): 37.6 nM | GI50 (MDA-MB-435): 26 nM | GI50 (RPMI-8226): 35.9 nM | GI50 (HT29; [3]): 33.7 nM | IC50 (HT29; Homo sapiens, HT-29, text of the NCI screening section, read-out: IC50): 34 nM | GI50 (ACHN): 62 nM

C=C(C)C1C(=O)N(c2cc(OC)c(OC)c(OC)c2)C1c1ccc(OC)c(O)c1 (stereo not drawn) [9q, 4-(3-Hydroxy-4-methoxyphenyl)-1-(3,4,5-trimethoxyphenyl)-3-(prop-1-en-2-yl)azetidin-2-one]
GI50 (U251): 30.5 nM | % Growth (U251; one dose 10 µM): 9.06% | GI50 (IGROV1): 32.2 nM | % Growth (IGROV1; one dose 10 µM): 29.32% | GI50 (SR): < 10 nM | % Growth (SR; one dose 10 µM): -2.84% | % Growth (SF539; one dose 10 µM): -8.30% | GI50 (LOX IMVI): < 10 nM | % Growth (LOX IMVI; one dose 10 µM): 30.61% | GI50 (SN12C): 37 nM | % Growth (SN12C; one dose 10 µM): 31.39% | GI50 (SK-OV-3): 30.4 nM | % Growth (SK-OV-3; one dose 10 µM): 8.15% | GI50 (SK-MEL-28): 64.3 µM | % Growth (SK-MEL-28; one dose 10 µM): 65.72% | % Growth (A549/ATCC; A549/A TCC, one dose 10 µM): 14.76% | GI50 (A549/ATCC): 27.8 nM | % Growth (COLO 205; one dose 10 µM): -27.00% | GI50 (COLO 205): 284 nM | GI50 (KM12): < 10 nM | % Growth (KM12; one dose 10 µM): -24.63% | GI50 (MDA-MB-231/ATCC; Homo sapiens, MDA-MB-231/ATCC): 16.8 nM | IC50 (MDA-MB-231/ATCC; Homo sapiens, MDA-MB-231, obtained from NCI, five concentrations 0.01–100 μM, read-out: Antiproliferative Activity IC50): 23.9 nM | % Growth (MDA-MB-231/ATCC; MDA-MB-231/ATCC, one dose 10 µM): -6.67% | % Growth (BT-549; one dose 10 µM): -9.94% | GI50 (BT-549): 11 nM | GI50 (OVCAR-8): < 10 nM | % Growth (OVCAR-8; one dose 10 µM): 14.64% | GI50 (CCRF-CEM): 19.2 nM | % Growth (HCT-2998; HCC-2998, one dose 10 µM): -6.59% | GI50 (HCT-2998): 30.1 nM | Fold Reduction in Vmax [1]: 4.27 | % Growth (CAKI-1; one dose 10 µM): 44.03% | GI50 (CAKI-1): 30.8 nM | GI50 (RXF 393): 42.8 nM | % Growth (RXF 393; one dose 10 µM): 18.79% | % Growth (HOP-92; one dose 10 µM): 16.15% | GI50 (HOP-92): 15.4 nM | GI50 (SW-620): 33.4 nM | % Growth (SW-620; one dose 10 µM): 17.89% | % Growth (HL-60(TB); HL-60(TB), one dose 10 µM, 48 h): -51.24% | GI50 (HL-60(TB); [2]): 21.1 nM | GI50 (HL-60(TB); HL-60, NCI screen): < 34 nM | % Growth (786-0; one dose 10 µM): 4.28% | GI50 (786-0): 26.8 nM | GI50 (MDA-MB-435): < 10 nM | % Growth (MDA-MB-435; one dose 10 µM): -13.45% | GI50 (RPMI-8226): 11.1 nM | % Growth (RPMI-8226; one dose 10 µM): 11.06% | % Growth (HT29; HT29, one dose 10 µM, 48 h): 2.66% | GI50 (HT29; [3]): 187 nM | GI50 (ACHN): 21.3 nM | % Growth (ACHN; one dose 10 µM): 34.94%

C=C(C)C1C(=O)N(c2cc(OC)c(OC)c(OC)c2)C1c1ccc(OC)c(OP(=O)(O)O)c1 (stereo not drawn) [15a, 2-Methoxy-5-(4-oxo-3-(prop-1-en-2-yl)-1-(3,4,5-trimethoxyphenyl)azetidin-2-yl)-phenyl dihydrogen phosphate]
GI50 (U251): 39.5 nM | GI50 (IGROV1): 62.8 nM | GI50 (SR): 53.1 nM | GI50 (SF539): 39.8 nM | GI50 (LOX IMVI): 42.6 nM | GI50 (SN12C): 192 nM | GI50 (SK-OV-3): 79.1 nM | GI50 (SK-MEL-28): 0.0831 µM | GI50 (A549/ATCC): 59.6 nM | GI50 (COLO 205): 312 nM | GI50 (KM12): 38.1 nM | GI50 (MDA-MB-231/ATCC; Homo sapiens, MDA-MB-231/ATCC): 53.4 nM | GI50 (BT-549): 59.6 nM | GI50 (OVCAR-8): 50.6 nM | GI50 (CCRF-CEM): 55.7 nM | GI50 (NCI-H226): > 100000 nM | GI50 (HCT-2998): 238 nM | GI50 (CAKI-1): 80.5 nM | GI50 (RXF 393): 123 nM | GI50 (HOP-92): 315 nM | GI50 (SW-620): 80.7 nM | GI50 (HL-60(TB); [2]): 27.9 nM | GI50 (HL-60(TB); HL-60, NCI screen): < 34 nM | GI50 (786-0): 390 nM | GI50 (MDA-MB-435): 25.9 nM | GI50 (RPMI-8226): 105 nM | GI50 (HT29; [3]): 577 nM | GI50 (ACHN): 77.1 nM

Reference: publication PMC10385824, “Antiproliferative and Tubulin-Destabilising Effects of 3-(Prop-1-en-2-yl)azetidin-2-Ones and Related Compounds in MCF-7 and MDA-MB-231 Breast Cancer Cells” (Pharmaceuticals, 2023)
